Measurements as given in PubChem BioAssay (NCI).
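Compound exposure: 48 hours, 5 concentrations, 96-well plates. The concentration for full growth arrest is given as TGI.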

Experiments:
Test in all cases: growth of human tumour cells (NCI), 48 h
[1] = tested on: MDA-N
[2] = tested on: KM12 colon
[3] = tested on: OVCAR-4 ovarian
[4] = tested on: CCRF-CEM leukemia
[5] = tested on: NCI-H23 lung
[6] = tested on: ACHN renal
[7] = tested on: CAKI-1 renal
[8] = tested on: SK-OV-3 ovarian
[9] = tested on: UO-31 renal
[10] = tested on: DU-145 prostate
[11] = tested on: BT-549 breast
[12] = tested on: EKVX NSCLC
[13] = tested on: SK-MEL-5 melanoma
[14] = tested on: HCT-116 colon
[15] = tested on: M14 melanoma
[16] = tested on: SF-268 CNS
[17] = tested on: HOP-92 NSCLC
[18] = tested on: MOLT-4 leukemia

SMILES	TGI [1]	TGI [2]	TGI [3]	TGI [4]	TGI [5]	TGI [6]	TGI [7]	TGI [8]	TGI [9]	TGI [10]	TGI [11]	TGI [12]	TGI [13]	TGI [14]	TGI [15]	TGI [16]	TGI [17]	TGI [18]
O=C1C(Cl)=C(N2CCN(c3ccccn3)CC2)C(=O)c2ncccc21	3.51 µM	12.2 µM	3.33 µM	3.11 µM	5.47 µM	5.52 µM	4.01 µM	20.6 µM	3.3 µM	24.1 µM	4.63 µM	24.4 µM	4.22 µM	3.14 µM	3 µM	8.17 µM	3.29 µM	4.09 µM
COc1ccc(N2C(=O)/C(=C\c3cccc(Oc4ccccc4)c3)SC2c2ccccc2)cc1 (configuration not stated)	> 100 µM	> 100 µM	> 100 µM	44.8 µM	> 100 µM	> 100 µM	> 100 µM	> 100 µM	> 100 µM	> 100 µM	> 100 µM	> 100 µM	> 100 µM	> 100 µM	> 100 µM	> 100 µM	> 100 µM	74.1 µM
Oc1cc(CN2COc3ccccc32)c(O)cc1CNC1CCCCC1	32.2 µM	> 100 µM	52.2 µM	> 100 µM	64.5 µM	78.5 µM	67.5 µM	> 100 µM	> 100 µM	> 100 µM	90.9 µM	36.3 µM	35.2 µM	35.3 µM	> 100 µM	33.6 µM	75.4 µM	39.3 µM
C=C1CC(CN2CCC(=O)NC2=O)(c2ccccc2)OC1=O (configuration not stated)	26.7 µM	46.8 µM	3.55 µM	4.92 µM	22.5 µM	23.8 µM	7.57 µM	30.4 µM	32.3 µM	30.1 µM	19.9 µM	40 µM	24.8 µM	12.2 µM	12.8 µM	50.4 µM	3.07 µM	7.9 µM
CN(C)Cc1cc(N=Nc2ccc(Cl)cc2)ccc1O	42.9 µM	34.5 µM	45.7 µM	36.7 µM	45.2 µM	29.3 µM	32.2 µM	33.8 µM	24.5 µM	48.1 µM	26.8 µM	33.8 µM	27.6 µM	31.2 µM	53.1 µM	34.4 µM	34.6 µM	31.8 µM
CC[C@@H](/C=C\CCC1(C[C@@H](N)CCC=C(C)C)OCCO1)O[Si](C(C)C)(C(C)C)C(C)C	30.7 µM	35.3 µM	36.8 µM	58.7 µM	38.2 µM	32 µM	35.4 µM	37.8 µM	32.3 µM	40.3 µM	35 µM	29.3 µM	32.7 µM	31.4 µM	33.6 µM	39.9 µM	28.7 µM	37.1 µM
COc1ncnc2c1cnn2Cc1cn(CCCCO)nn1	> 100 µM	> 100 µM	> 100 µM	> 100 µM	> 100 µM	> 100 µM	> 100 µM	> 100 µM	> 100 µM	> 100 µM	> 100 µM	> 100 µM	> 100 µM	> 100 µM	> 100 µM	> 100 µM	> 100 µM	> 100 µM
COC(=O)c1cc(C)n(CN(Cc2ccccc2)Cn2nc(C(=O)OC)cc2C)n1	> 100 µM	> 100 µM	> 100 µM	> 67.6 µM	> 100 µM	> 65.6 µM	> 100 µM	> 100 µM	> 92.1 µM	> 100 µM	> 100 µM	> 100 µM	> 100 µM	> 59.8 µM	> 100 µM	> 100 µM	> 100 µM	> 100 µM
Cc1cc(C)n(C(=O)CSc2nnc(SCC(=O)n3nc(C)cc3C)s2)n1	> 100 µM	> 100 µM	> 100 µM	> 100 µM	> 100 µM	> 100 µM	> 100 µM	> 100 µM	> 100 µM	> 100 µM	> 100 µM	> 100 µM	> 100 µM	> 100 µM	> 100 µM	> 100 µM	> 100 µM	> 100 µM
COc1cccc2cc(C(=O)Nc3ccccn3)c(=N)oc12	> 100 µM	> 100 µM	> 100 µM	> 100 µM	> 100 µM	> 100 µM	> 100 µM	> 100 µM	> 100 µM	> 100 µM	> 100 µM	> 100 µM	> 100 µM	> 100 µM	> 100 µM	> 100 µM	> 100 µM	10.6 µM
O=C1CN(c2ccc(Cl)cc2)C(=O)CN1NCNN1CC(=O)N(c2ccc(Cl)cc2)CC1=O	> 100 µM	> 100 µM	> 100 µM	> 100 µM	> 100 µM	> 100 µM	> 100 µM	> 100 µM	> 100 µM	> 100 µM	> 100 µM	> 100 µM	> 100 µM	> 100 µM	> 100 µM	> 100 µM	> 100 µM	> 100 µM
Cc1cc(C)n(CN(Cn2nc(C)cc2C)c2ccccc2)n1	27.6 µM	42.6 µM	52 µM	83.9 µM	40.8 µM	51.5 µM	> 100 µM	> 100 µM	78.5 µM	> 100 µM	69.2 µM	72.8 µM	62.4 µM	41.4 µM	31.1 µM	52.6 µM	> 100 µM	28.3 µM
O=C1C(Cl)C(c2cc3cc(Br)ccc3nc2Cl)N1c1c(Cl)cccc1Cl (configuration not stated)	> 25 µM	> 25 µM	11.4 µM	20 µM	> 25 µM	> 25 µM	> 25 µM	> 25 µM	4.5 µM	> 25 µM	> 25 µM	22.2 µM	> 25 µM	> 25 µM	> 25 µM	> 25 µM	> 25 µM	11.4 µM
O=C(CN(c1ccc(S(=O)(=O)O)cc1)c1ccc(S(=O)(=O)O)cc1)Nn1cnc2ccc(S(=O)(=O)N(c3ccc(S(=O)(=O)O)cc3)c3ccc(S(=O)(=O)O)cc3)cc2c1=O	> 100 µM	> 100 µM	> 100 µM	> 100 µM	> 100 µM	> 100 µM	> 100 µM	> 100 µM	> 100 µM	> 100 µM	> 100 µM	> 100 µM	> 100 µM	> 100 µM	> 100 µM	> 100 µM	> 100 µM	> 100 µM
